{"source": "patent US11369585B2", "about": "“Compositions, methods, systems and/or kits for preventing and/or treating neoplasms” (Research Cancer Institute of America, priority 2017, dated 2022)", "key": {"[1]": {"test_system": "triple negative breast cancer", "settings": "cited from earlier work"}, "[2]": {"test_system": "stage four pancreatic cancer", "experiment": "Case study 3: laboratory tests (VEGF, IL-8, TGF, CA 19.9)", "assay_type": "in vivo, human", "settings": "two months without epigenetic therapies, Lynparza continued; increased from 8565", "excerpt": "(§1) This is a case study of a person with history of stage four pancreatic cancer who was diagnosed after abdominal pain, with adenocarcinoma of pancreas metastasized to their liver. They had explored all potential therapies and their oncologist had given them less than 3 months to live and had referred them to hospice.\nThey were immediately started on daily IV epigenetic therapies in combination with PARP inhibitors, which they received for two weeks after which their laboratory tests were repeated.\n(§2) After two weeks of epigenetic therapies, his VEGF decreased from 248 to 70.\n(§3) Thus, Lynparza alone was not sufficient to retard tumor growth. Upon their return to the clinic, their tumor marker CA 19.9 was analyzed."}, "[3]": {"test_system": "cfDNA somatic alterations", "experiment": "Case study 3: Guardant360 % cfDNA with somatic alterations", "assay_type": "in vivo, human", "settings": "Lynparza alone", "excerpt": "Therefore, clinical correlation is advised.\nas §2\nFor example, KRAS mutant allele frequency (MAF) decreased from over 50 percent to 5.6, TP53 decreased from over 50 percent down to 5.1 percent (FIG. 19)."}, "[4]": {"test_system": "adenocarcinoma of pancreas metastasized to liver", "experiment": "Case study 3: clinical course", "assay_type": "in vivo, human", "settings": "epigenetic therapies stopped, Lynparza continued", "excerpt": "as §1\nThey were able to walk again independently. They started to do clinically well. […] Edema in their lower extremities improved.\nas §3"}, "[5]": {"test_system": "serous ovarian carcinoma lesions", "experiment": "Case study 2: whole body PET scan and abdominal CT scan restaging", "settings": "Niraparib 300 mg daily only"}, "[6]": {"settings": "cited from earlier work"}, "[7]": {"test_system": "glioma cells", "settings": "cited from earlier work"}, "[8]": {"settings": "abdominal CT about one month after stopping epigenetic therapies, from 16 mm"}}}
{"smiles": "NC(=O)c1ccc(I)c([N+](=O)[O-])c1", "note": "[Iniparib]", "values": [{"measurement": "phase II trial outcome", "setting": "[1]; in vivo", "result": "promising results"}, {"measurement": "survival in phase III trial", "setting": "[1]; patients also received cytotoxic chemotherapy", "result": "no improvement in survival"}]}
{"smiles": "O=C(c1cc(Cc2n[nH]c(=O)c3ccccc23)ccc1F)N1CCN(C(=O)C2CC2)CC1", "note": "[Lynparza]", "values": [{"measurement": "tumor marker CA 19.9", "setting": "[2]", "result": 45988}, {"measurement": "cfDNA gene alterations (FGF2, C Myc, EGFR, PI3K, CDK4, CDK6, NF-1, KIT, TP53, PDGF, KRAS, BRCA1)", "setting": "[3]", "result": "did not change"}, {"measurement": "disease course", "setting": "[4]", "result": "their disease progressed"}]}
{"smiles": "NC(=O)c1cccc2cn(-c3ccc([C@@H]4CCCNC4)cc3)nc12", "note": "[Niraparib]", "values": [{"measurement": "abdominal mesenteric artery LN size", "setting": "[5]; [8]", "result": 28, "unit": "mm"}, {"measurement": "retroperitoneal node size", "setting": "[5]; [8]", "result": 21, "unit": "mm"}, {"measurement": "periaortic nodes size", "setting": "[5]; abdominal CT about one month after stopping epigenetic therapies, from 24 mm", "result": 32, "unit": "mm"}, {"measurement": "overall response on abdominal CT scan", "setting": "[5]; about one month after stopping epigenetic therapies", "result": "mixed response with progression"}]}
{"smiles": "O=c1c(O)c(-c2ccc(O)c(O)c2)oc2cc(O)cc(O)c12", "note": "[quercetin]", "values": [{"measurement": "water solubility", "setting": "[6]", "result": "not water soluble"}, {"measurement": "effect on angiogenesis", "setting": "[7]", "result": "suppression of angiogenesis"}]}
